Assay results taken from ChEMBL document CHEMBL1201862, “PubChem BioAssay data set” (2004).
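Dose response: 5 concentrations. Exposure: 48 h. Format: 96-well plates. Endpoint: linear interpolation; highest concentration if not reached. GI50 = concentration required for 50% inhibition of growth.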 Calls of active or inactive are those of the source. Cut-off read from the data, not from the text of the source: active = GI50 up to about 1.1 µM and inactive = higher. *1 amine or outer side, *2 acyl side, *3 side chain or, on linkers, in order; H or OH if unused. Where a SMILES comes first, the peptide text is derived from it. Bridges are numbered along the chain shown (N, C = ends). Roman numbers before positions name the chains, in order. [ ]: non-standard residue; d: D form. Actinocin(1to9) = Cc1c2oc3c(C)ccc(C(=O)[*:2])c3nc-2c(C(=O)[*:1])c(N)c1=O; NMeV = CN[CH](C(=O)O)C(C)C; Sar = CNCC(=O)O

Experiments:
Assay in all cases: growth of human tumour cells (NCI), 48 h
BT-549 = test system: BT-549
SNB-78 = test system: SNB-78
M19-MEL = test system: M19-MEL
XF498 = test system: XF498
DMS-114 = test system: DMS-114
KM-20L2 = test system: KM-20L2
DMS-273 = test system: DMS-273
HOP-18 = test system: HOP-18
RXF 631 = test system: RXF 631

Compound | GI50 (BT-549) | GI50 (SNB-78) | GI50 (M19-MEL) | GI50 (XF498) | GI50 (DMS-114) | GI50 (KM-20L2) | GI50 (DMS-273) | GI50 (HOP-18) | GI50 (RXF 631)
CC(C)(C)c1cc2c(O)c(c1)Cc1cc(C(C#N)(Cc3ccc4ccccc4c3)Cc3ccc4ccccc4c3)cc(c1O)Cc1cc(C(C)(C)C)cc(c1O)Cc1cc(C(C#N)(Cc3ccc4ccccc4c3)Cc3ccc4ccccc4c3)cc(c1O)C2 | > 100 µM (inactive) | – | – | – | – | – | – | – | –
N#Cc1ccc(-c2nc3c(N)nc(-c4ccccc4)nc3o2)cc1 | > 100 µM (inactive) | – | – | – | – | – | – | – | –
CCOC(=O)/C=C(\C(=O)OCC)n1cc(C)c(=O)n(Cc2cnnn2CCCCOC(C)=O)c1=O | 8.28 µM (inactive) | – | – | – | – | – | – | – | –
CC(C)C1=CC(=O)[C@@](C)(C2[C@H](O)C[C@@]3(C)[C@@H]4CC=C5[C@@H](CC[C@@H](OC6OCC(O)C(O)C6OC6OC(C)C(O)C(O)C6O)C5(C)C)[C@]4(C)C(=O)C[C@]23C)O1 (some centres undefined) | > 100 µM (inactive) | – | – | – | – | – | – | – | –
c1ccc(-c2ccc(-c3cc4ccccc4[nH]3)cc2)cc1 | > 100 µM (inactive) | – | – | – | – | – | – | – | –
CONC(C)=O | > 100 µM (inactive) | – | – | – | – | – | – | – | –
COC(=O)[C@@H]1c2cc3c(c(O)c2[C@@H](OC2OC(C)C(OC)C(C)(OC)C2OC)C[C@]1(C)O)C(=O)c1c(O)cc2c(c1C3=O)O[C@H]1O[C@]2(C)[C@H](O)[C@@H](N(C)C)[C@@H]1O (some centres undefined) | 0.0197 µM (active) | 0.00306 µM (active) | 0.000973 µM (active) | 0.00177 µM (active) | 0.00107 µM (active) | 0.00745 µM (active) | 0.01 µM (active) | 0.00323 µM (active) | –
CN(CCCNC(=O)c1n[nH]c2c1ccc1ccccc12)CCCNC(=O)c1n[nH]c2c1ccc1ccccc12 | 15.6 µM (inactive) | – | – | – | – | – | – | – | –
CC1/C(=N\O)CC(c2ccccc2)N(C)C1c1ccccc1 (centres undefined) | – | > 100 µM (inactive) | > 100 µM (inactive) | – | > 100 µM (inactive) | > 100 µM (inactive) | > 100 µM (inactive) | – | > 100 µM (inactive)
C#CCN(Cc1ccc2nc(-c3ccccc3)c(Cl)nc2c1)c1ccc(Cl)c(Cl)c1 | – | 38.1 µM (inactive) | > 100 µM (inactive) | > 100 µM (inactive) | > 100 µM (inactive) | > 100 µM (inactive) | > 100 µM (inactive) | > 100 µM (inactive) | –
[O-][S+]1SC(=S)C2C=CC=NC21 (centres undefined) | 19 µM (inactive) | – | – | – | – | – | – | – | –
CC1=CC(=O)NCCN1C | – | > 100 µM (inactive) | > 100 µM (inactive) | > 100 µM (inactive) | > 100 µM (inactive) | > 100 µM (inactive) | > 100 µM (inactive) | > 100 µM (inactive) | –
COc1cc2cnc3c4cc(OCc5ccccc5)ccc4ccc3c2cc1OC | – | 19.1 µM (inactive) | 27.4 µM (inactive) | – | 11.4 µM (inactive) | 80 µM (inactive) | – | 18.4 µM (inactive) | 14.1 µM (inactive)
NC(=O)c1cn(C2OC(CO)C(O)C2O)c(=O)[nH]c1=O (centres undefined) | – | > 100 µM (inactive) | > 100 µM (inactive) | – | > 100 µM (inactive) | – | > 100 µM (inactive) | – | > 100 µM (inactive)
O=C1O/C(=C(/Cl)c2cccc3ccccc23)c2ccccc21 | > 100 µM (inactive) | – | – | – | – | – | – | – | –
CC(N)CC(=O)O (centres undefined) | – | > 5000 µM (inactive) | > 5000 µM (inactive) | – | > 5000 µM (inactive) | > 5000 µM (inactive) | > 5000 µM (inactive) | > 5000 µM (inactive) | –
c1ccc(NC[Si]23OCCN(CCO2)CCO3)cc1 | – | > 100 µM (inactive) | > 100 µM (inactive) | – | > 100 µM (inactive) | – | > 100 µM (inactive) | > 100 µM (inactive) | > 100 µM (inactive)
CCOC(=O)/C(=C\c1ccc(F)cc1)C(C)=O | 21.5 µM (inactive) | – | – | – | – | – | – | – | –
CC(=O)Oc1ccc2c(c1)CC[C@@H]1C2[C@@H](O[N+](=O)[O-])C[C@@]2(C)C1CC[C@@H]2O (some centres undefined) | 62.4 µM (inactive) | – | – | – | – | – | – | – | –
CCCCCCCCCCCCCCCC(=O)N(CCCCCCCCCCC(=O)O)CC(O)C(O)C(OC1OC(CO)C(O)C(O)C1O)C(O)CO (centres undefined) | 25.4 µM (inactive) | – | – | – | – | – | – | – | –
CC(=O)[O-].[Zn+].c1ccc(/C(=N\Nc2ccccn2)c2ccccn2)cc1 | – | 2.38 µM (inactive) | 0.394 µM (active) | – | 0.01 µM (active) | 0.01 µM (active) | 0.309 µM (active) | 0.247 µM (active) | –
CO[C@H](C(=O)O[C@H]1C(=O)N2CCC3CCC1C32C)c1ccccc1 (some centres undefined) | – | > 100 µM (inactive) | > 100 µM (inactive) | > 100 µM (inactive) | > 100 µM (inactive) | > 100 µM (inactive) | – | > 100 µM (inactive) | –
CC/C=C\C/C=C\C/C=C\CCCCCCCC(=O)OCC(O)CO (centres undefined) | – | > 58.7 µM (inactive) | – | > 100 µM (inactive) | 44.4 µM (inactive) | > 100 µM (inactive) | > 100 µM (inactive) | 52.2 µM (inactive) | –
O=C1c2cccnc2-c2nccc3ccnc1c23 | 1.43 µM (inactive) | – | – | – | – | – | – | – | –
COc1ccccc1-c1nc(O)c2ccccc2n1 | > 100 µM (inactive) | – | – | – | – | – | – | – | –
COc1ccc(CC2NC(=O)C(NC(=O)c3c4nc5c(C(=O)NC6C(=O)NC(Cc7ccc(OC)cc7)C(=O)N7CCCC7C(=O)N(C)CC(=O)N(C)C(C(C)C)C(=O)OC6C)ccc(C)c5oc-4c(C)c(=O)c3N)C(C)OC(=O)C(C(C)C)N(C)C(=O)CN(C)C(=O)C3CCCN3C2=O)cc1 (centres undefined) (I: TY(Me)P[Sar][NMeV] / II: TY(Me)P[Sar][NMeV]; ester I:1-I:C, II:1-II:C; linker I:N-II:N via Actinocin(1to9); configuration not given here) | 0.01 µM (active) | – | – | – | – | – | – | – | –
